Data as given in patent US12053452B2 (priority 2021, dated 2024).
Entries after “also recorded” stand apart in the source; their conditions may differ. Where a name gives a salt, the structure may show the parent alone. Read-outs that look alike come from different tables or passages of the source.

Legend:
[1] = human urine, after racemic MDMA; cited from earlier work
[2] = tested on: C57 mice; experiment: Sociability test, C57; assay type: in vivo
Description: (§1) This assay was conducted in adult male C57 and BTBR mice (n=6 per group) in a dedicated conditioning room where ambient light, sound, and human contact were tightly controlled. Social preference chambers consist of two polycarbonate boxes (13.5 cm wide×22.5 cm tall×31.0 cm deep), floored with rough-textured black ABS plastic, and connected to one another by a 1.25″ PVC T-junction. An infrared photobeam emitter/detector array is mounted at each intersection of the T-junction and each preference compartment, and as a mouse traversed the apparatus, it would break the photobeam upon entry to or exit from each preference compartment. Beam breaks started or stopped a counter on an interfaced computer, allowing automated collection of time spent in each compartment. At the end of each test, data were reported as time (in seconds) spent in each compartment, the number of entries into each compartment, and the average time spent in each compartment following an entry. Social preference tests were conducted in an iterative manner, with each test subject completing four distinct phases as described below. Between testing sessions, chambers were sanitized by wiping the insides with a disinfectant product provided by the UAMS Department of Laboratory Animal Medicine. At the end of the week (upon completion of all phases of the procedure), each apparatus was disassembled and all parts were sanitized. No food or water were available during social preference sessions, but were available in the home cage immediately afterwards.
A single sociability session occurred the day after the novelty preference test, where one compartment contained a wire mesh cup with a dummy mouse inside while the other compartment contained a male NIH Swiss stranger mouse inside the previously empty cup. […] The position of the dummy mouse (left or right compartment) remained the same for each subject as during the novelty test the day before, thereby counterbalancing the position of the stranger mouse across subjects. NIH Swiss stranger mice were similar in mass and appearance to the dummy PVC mice, and were housed separately from the experimental subjects (C57 and BTBR mice) in the colony facility. The first time the experimental subjects ever encountered the stranger mice was when they entered the compartment where they were contained. During this session, mice were weighed, administered the same injection as the day before, and returned to their home cage for a 30 min pretreatment period. Mice were then introduced into the T-junction and allowed to explore both preference compartments for 15 minutes. Sociability tests always occurred on Wednesdays or Thursdays to prevent any weekend testing.

[3] = tested on: C57 mice; settings: mouse, in vivo; for locomotor activity: ip
[4] = tested on: BTBR mice; experiment: Social novelty preference test, BTBR (autism spectrum disorder model); assay type: in vivo; settings: in vivo mice models of autism spectrum disorder (BTBR)
Description: as §1
A single social novelty preference session occurred the day after the sociability test, where one compartment contained a wire mesh cup with the same NIH Swiss mouse from the previous day inside (referred to now as the “familiar” mouse) while the other compartment contained a new male NIH Swiss stranger mouse inside the cup which previously contained the dummy mouse during the sociability test. […]

[5] = tested on: C57 mice; experiment: Social preference procedure: compartment entries (proxy for locomotor stimulant effects), C57; assay type: in vivo; settings: 10 mg/kg IP, social novelty test, 10 mg/kg
Description: as §1
(§2) Quantification of total entries into the preference compartments provided a proxy measurement for locomotor stimulant effects of the various doses of the various test drugs. This established a limit to the drug doses that can be tested in the social preference procedure, as induction of locomotor stimulant effects confounds preference assessments (because mice stop attending to the social stimuli in each compartment and instead spend their time engaged in locomotor behavior.) Motor activity varied across the distinct phases of social preference testing, in part because the habituation session is twice as long (30 minutes) as the novelty, sociability, and social novelty tests (15 minutes each), but also because mice emitted high levels of exploratory behavior in novel environments. Thus, as familiarity with the test apparatus increased over successive exposures to the chambers, the number of entries decreased.
(§3) (Note that entries were collected for every test, but drug effects on entries during earlier phases may be less reliable due to the confounding influence of changing familiarity with the apparatus across phases.)

[6] = tested on: C57 mice; experiment: Social novelty preference test, C57; assay type: in vivo
Description: as §1
A single social novelty preference session occurred the day after the sociability test, where one compartment contained a wire mesh cup with the same NIH Swiss mouse from the previous day inside (referred to now as the “familiar” mouse) while the other compartment contained a new male NIH Swiss stranger mouse inside the cup which previously contained the dummy mouse during the sociability test. […] The position of the now familiar NIH Swiss mouse (left or right compartment) remained the same for each subject as during the sociability test the day before, thereby counterbalancing the position of the new NIH Swiss stranger mouse across subjects. As before, the new NIH Swiss stranger mice were housed separately from the experimental subjects (C57 and BTBR mice) in the colony facility, and the first time the experimental subjects ever encountered them was when they entered the compartment where they were contained. During this session, mice were weighed, administered the same injection as the day before, and returned to their home cage for a 30 min pretreatment period. Mice were then introduced into the T-junction and allowed to explore both preference compartments for 15 minutes. Social novelty tests always occurred on Thursdays or Fridays to prevent any weekend testing.

[7] = tested on: C57 mice; experiment: Novelty preference test, C57; assay type: in vivo
Description: as §1
A single novelty preference session occurred the day after the habituation test, where one compartment contained an empty wire mesh cup and the other compartment contained an identical wire mesh cup with a novel dummy mouse inside. The position of the dummy mouse (left or right compartment) was counterbalanced across subjects. Dummy mice were constructed from 2.5″ lengths of white ¾″ PVC pipe, with a zip tie attached to one end (to mimic a tail) and two red dots drawn on the other end (to mimic eyes.) During this session, mice were weighed, administered an injection, and returned to their home cage for a 30 min pretreatment period. Mice were then introduced into the T-junction and allowed to explore both preference compartments for 15 minutes. These tests were conducted as a procedural control to ensure that any observed drug effects were not simply due to enhancement of the innate novelty preference of mice. Novelty preference sessions always occurred on Tuesdays or Wednesdays to prevent any weekend testing.

[8] = tested on: BTBR mice; experiment: Radiotelemetry of core temperature, BTBR; assay type: in vivo
Description: (§4) The radiotelemetry assay was conducted in adult male C57 and BTBR mice (n=6 per group) in a dedicated testing room where ambient light, sound, and human contact were tightly controlled.
(§5) Prior to surgical implantation of radiotelemetry probes, mice received 3 mg/kg meloxicam (IP), and anesthesia was induced with 4% inhaled isoflurane and maintained with 1-3% isoflurane (as needed) throughout the procedure at a flow rate of 1.5 litres/minute. The abdominal area of each animal was treated with depilatory cream, then sanitized with 3 alternating scrubs with iodine and alcohol. A rostral-caudal cut approximately 1.5 cm in length was made with sterile skin scissors, providing access to the intraperitoneal cavity. A cylindrical glass-encapsulated radiotelemetry probe (model ER-4000 E-Mitter, Mini Mitter, Bend, OR, USA) was then inserted. These probes measure 15.5 mm×6.5 mm and weigh approximately 1 gram. Incisions were closed (skin layer and muscle layer separately) using reverse cutting 5-0 Vicryl absorbable sutures for the muscle layer and 5-0 nylon suture material for the skin layer. Surgeries were carried out at least 7 days before initiation of experimental conditions, allowing time for incisions to heal and for animals to recover normal body weights. Following surgery, all implanted mice were individually housed in Plexiglas cages within the telemetry room for the duration of all experiments. Implanted transmitters produce activity- and temperature-modulated signals which are sent to a receiver (model ER-4000 Receiver, Mini Mitter Co., Inc.) underneath each cage. Following use, telemetry probes were removed from carcasses, wiped with alcohol swabs, and stored in the disinfectant solution until re-use.
(§6) At least 7 days after surgical implantation of radiotelemetry probes, mice in their individual home cages were placed atop a telemetry energizer/receiver, which powered probes and transmitted their data to an interfaced computer. Upon initiation of an experimental session, the computer collected two data updates from the probes at 5 min intervals: core temperature (in ° C.) on one channel, and locomotor counts (in arbitrary units, depending on the relative position of the probe atop the receiver) on the other. After at least 60 minutes of baseline data collection, mice were removed from their cages, injected with saline or a given dose of a specific drug, then returned to the home cage 24 hours of data collection.
(§7) Food and water were always freely available in the home cage. Mice were injected with ascending doses of a given drug, with at least 48 hours separating doses. Because there are few studies of drug effects in BTBR mice, the first drug dose tested occasionally elicited unexpectedly large locomotor effects in these animals. In these cases, smaller drug doses were tested next, after a washout period of at least one full day.

[9] = tested on: C57 mice; experiment: Radiotelemetry of core temperature, C57; assay type: in vivo
Description: as §4, §5, §6, §7

[10] = tested on: BTBR mice; experiment: Social preference procedure: compartment entries (proxy for locomotor stimulant effects), BTBR; assay type: in vivo
Description: as §1, §2, §3

[11] = tested on: BTBR mice; experiment: Radiotelemetry of locomotor activity, BTBR; assay type: in vivo; settings: 0 to 240 minutes
Description: as §4, §5, §6, §7

CC(N)Cc1ccc2c(c1)OCO2 (racemic) [MDA, (±)-3,4-methylenedioxyamphetmaine]
enantiomer with higher Cmax [1]: S-enantiomers were higher

CNC(C)Cc1ccc(OC2OC(C(=O)O)C(O)C(O)C2O)c(OC)c1 (stereo not shown) [HMMA glucuronide]
enantiomer with higher Cmax [1]: S-enantiomers were higher

CNC(C)Cc1ccc(OS(=O)(=O)O)c(OC)c1 (stereo not shown) [HMMA sulfate]
enantiomer with higher Cmax [1]: Higher R-enantiomer Cmax

CN[C@H](C)Cc1ccc2c(c1)OCO2 [R(−)-MDMA, (2R)-1-(1,3-benzodioxol-5-yl)-N-methylpropan-2-amine]
sociability (time spent with the stranger mouse vs dummy) ([2]; 3.0 mg/kg IP): elicit significant effects on sociability | sociability (time spent with the stranger mouse vs dummy) ([2]; 10.0 mg/kg IP): largest effect on sociability | locomotor activity ([3]; 10 mg/kg): did elicit significant motor stimulation | locomotor activity ([3]; 30 mg/kg): did not elicit significant motor stimulation | pro-social behaviour [4]: promotes pro-social behaviour | compartment entries (locomotor stimulant effect) [5]: did not increase compartment entries; also recorded: had no effects on locomotor activity | compartment entries (locomotor stimulant effect) ([5]; listed as R-(−) MDMA): no stimulant effect on the motor activity | social novelty preference (new stranger mouse vs familiar mouse) ([6]; 3.0 mg/kg IP): elicit significant effects on sociability | social novelty preference (new stranger mouse vs familiar mouse) ([6]; 10 mg/kg IP, 10 mg/kg): largest effect on social novelty preference | social novelty preference (new stranger mouse vs familiar mouse) ([6]; 10 mg/kg IP, listed as R-MDMA, 10 mg/kg): strong preference for the new stranger mouse | novelty preference (time spent with the dummy mouse) ([7]; 10.0 mg/kg IP): had no effects on locomotor activity (see FIG. 4) or novelty preference | novelty preference (time spent with the dummy mouse) ([7]; various doses IP): no systematic effects on novelty preference | effect on core temperature ([8]; 30 mg/kg IP): no significant effects on core temperature were observed | effect on core temperature ([8]; various/increasing doses IP): did not elicit significant effects on core temperature | effect on core temperature ([9]; 10 mg/kg IP): neither of the mixtures (e.g., exemplary composition 2(i)) nor pure R(−)-MDMA (e.g., exemplary composition 7) elicited significant effects on the core temperature | effect on core temperature ([9]; 30 mg/kg IP): neither of the mixtures nor pure R(−)-MDMA elicited significant effects on the core temperature | compartment entries (locomotor stimulant effect) ([10]; 3.0 mg/kg IP, social novelty test, 3 mg/kg): reduced entries; also recorded: suppresses the locomotor activity | compartment entries (locomotor stimulant effect) ([10]; all tested doses IP): do not influence locomotor activity | locomotor activity ([11]; 10 mg/kg IP): no significant motor stimulation was observed | locomotor activity ([11]; 30 mg/kg IP): no significant motor stimulation was observed

CN[C@@H](C)Cc1ccccc1 [S(+)-methamphetamine, S-methamphetamine]
locomotor activity, strain comparison C57 vs BTBR [3]: no significant strain differences observed at any dose | locomotor effects vs saline [3]: effects were not different from saline

CN[C@@H](C)Cc1ccccc1 [methamphetamine]
sociability (time spent with the stranger mouse vs dummy) ([2]; various doses IP): no systematic effects on sociability | social novelty preference (new stranger mouse vs familiar mouse) ([6]; various doses IP): no systematic effects on social novelty preference | novelty preference (time spent with the dummy mouse) ([7]; various doses IP): no systematic effects on novelty preference
